Source: US10925923B2, “Peptide having anti-inflammatory activity, and use thereof” (CAREGEN CO., LTD., priority 2016, dated 2021)
Where no end group is shown, it is not given here.

Assays:
[1] = tested on: INF-γ; assay: ELISA (splenocytes), INF-γ secretion; assay type: cell-based, mice; conditions: LPS stimulator, 48 hours
Description: (§1) The splenocytes treated with the peptide samples and the stimulator LPS in example 1 were incubated for 48 hours, and then the culture media were collected. The obtained media were subjected to an experiment using an ELISA kit (R&D system) for cytokines (TNF-α and INF-γ) to be investigated.

[2] = tested on: IL-2; assay: IL-2 RT-PCR in LPS-stimulated splenocytes; assay type: cell-based, mice; conditions: mouse splenocytes, LPS stimulator, peptide 0.2, 2, 20 ug/ml
[3] = tested on: TNF-α; assay: ELISA (Raw264.7 cells), TNF-α secretion; assay type: cell-based; conditions: pre-treated at 0.2, 2, 20 ug/ml, then LPS, 24 hours
Description: Raw264.7 cells were seeded at 1×10^6 cells/48-well, and incubated overnight. The cells were pre-treated with samples to be investigated at 0.2, 2, and 20 ug/ml, and after 30 minutes, the cells were treated with LPS. Incubation was conducted at the scheduled time point. After 24 hours, the culture media were collected, and the obtained media were subjected to an experiment using an ELISA kit (R&D system) for cytokine (TNF-α) to be investigated.

[4] = tested on: Raw264.7 cells; assay: FACS intracellular ROS assay (DCF-DA); assay type: cell-based; conditions: pre-treated at 1, 10, 50 ug/ml, then LPS
Description: Raw264.7 cells were seeded at 1×10^6 cells/6-well, and incubated overnight. The cells were pre-treated with samples to be investigated at 1, 10, and 50 ug/ml, and after 30 minutes, the cells were treated with LPS. The cells were incubated according to the scheduled time point, and then 30 minutes after the treatment with DCF-DH, the oxidation activity was measured by the degree of fluorescence using FACS.

[5] = tested on: CD3+ and CD25+ cells; assay: Activation T cell analysis (FACS), CD3 and CD25 markers; assay type: cell-based, mice; conditions: splenocytes, LPS stimulator, 24 hours
Description: The cells were treated with the peptide samples and the stimulator LPS as described in example 1, and after 24 hours, the cells were treated with antibody (CD3 and CD25) activation T cell markers for 30 minutes, followed by washing twice with PBS, and then FACS was conducted.

[6] = tested on: COX2; assay: Western blot of COX2 in splenocytes; assay type: cell-based, mice; conditions: peptide 0.2-20 ug/ml, 24 hours
Description: The splenocytes obtained in example 1 were seeded in 24-well plate at cell density of 1×10^7 cells/well. Then, after incubation overnight, the cells were treated with the peptides of SEQ ID NO: 1, SEQ ID NO: 2 and SEQ ID NO: 3 with different concentrations (0.2-20 ug/ml), followed by incubation in an incubator at 37° C. for 24 hours, and then the cells were treated with cell lysis buffer to secure lysate, followed by protein quantification. Then, western blotting with respect to the inflammation inducing factor COX2 was conducted, and the results are shown in FIGS. 2a to 2f.

[7] = tested on: TNF-α; assay: TNF-α RT-PCR in LPS-stimulated splenocytes; assay type: cell-based, mice; conditions: mouse splenocytes, LPS stimulator, peptide 0.2, 2, 20 ug/ml
Description: [The procedure below names another target; the source lists this target under the same test.] After 6-7-week-old mice were sacrificed to obtain spleen, the spleen was crushed using a cell filter, and centrifuged with serum-free RPMI 1640 medium. The upper layer was discarded, and for removal of red blood cells (RBC), RBC lysis buffer was used.
RBC was removed twice, followed by washing with serum-free RPMI1640 medium, and then an appropriate amount of serum-free RPMI1640 medium was added.
The cells were counted, and seeded in 96-well plate (1×10^6 cells/well) and 24-well plate (1×10^7 cells/dish). The next day, the cells were treated with respective peptide samples (0.2, 2, 20 ug/ml) and the stimulator LPS. Here, the experiment was performed by adjusting the time point.
Total RNA was extracted using Easy Blue (Intron). For synthesis of single-stranded DNA from RNA, RT premix (Intron) was used, and 3 ug of RNA, 2 ug of random hexamer, and DEPC-treated water were added thereto to reach a total volume of 20 ul, followed by reaction for 5 minutes at 65° C. and 1 hour at 42° C. Heating was again conducted at 95° C. for 5 minutes to prepare cDNA.
PCR was conducted by mixing 3 ul of cDNA and 10 pmole primers specific to CGI 58 gene with PCR premix (Intron). PCR conditions were: 94° C. for 30 seconds, 55-56° C. for 30 seconds, and 72° C. for 30 seconds. Genes were analyzed in the conditions in which the PCR results could be exponentially amplified. 5 ul of PCR product was obtained, electrophoresed on 1% agarose gel, and stained with ethidium bromide.

[8] = tested on: TNF-α; assay: ELISA (splenocytes), TNF-α secretion; assay type: cell-based, mice; conditions: LPS stimulator, 48 hours
Description: as §1

Substance	secretion of INF-γ in splenocytes (ELISA) [1]	expression of IL-2 (RT-PCR) [2]	secretion of TNF-α in RAW264.7 cells (ELISA) [3]	ROS production [4]	CD3+ and CD25+ cells (FACS) [5]	expression of COX2 (western blot) [6]	expression of TNF-α (RT-PCR) [7]	secretion of TNF-α in splenocytes (ELISA) [8]
Thr-Met-Arg-Asp (TMRD) [SEQ ID NO: 1]	decreased	tend to decrease	tended to decrease	reduced	decreased	reduced	tend to decrease	decreased
Asp-Asn-Cys-Leu-Arg (DNCLR) [SEQ ID NO: 2]	decreased	tend to decrease	tended to decrease	reduced	decreased	reduced	tend to decrease	decreased
GVQHQASPY [SEQ ID NO: 3]		tend to decrease	decreased	reduced	decreased	reduced	tend to decrease	
